Like-named read-outs stand apart in the source and are kept apart here.
Tested on: Bmi-1 protein
Assay: Sandwich ELISA Assay (Bmi-1 protein level in HT-1080 cells after compound treatment)
Assay type: cell-based
In short: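 HT-1080 cells exposed to compounds for 40–48 h at 37 °C (0.5% DMSO final), then lysed. Bmi-1 in lysates measured by sandwich ELISA (mouse monoclonal capture, rabbit anti-Bmi-1 detection, HRP anti-rabbit, TMB), read at OD450 with OD570 reference against a recombinant Bmi-1 standard curve (0–8000 pg/mL).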

[1] = Table 1, Bmi-1 sandwich ELISA, read-out: ELISA EC50 value for Bmi-1 protein
[2] = read-out: ELISA EC50 value for Bmi-1 protein, Table 1, Bmi-1 sandwich ELISA

SMILES | EC50 [1] | EC50 [2]
Cc1nc2ccccc2n1-c1cc(N)cc(Nc2ccc(OC(F)(F)F)cc2)n1 [compound 604] | 100 to 3000 nM | –
Nc1cc(Nc2ccc(C(F)(F)F)cc2)nc(-n2c(C3CC3)nc3cc(F)c(F)cc32)c1 [compound 504, 6-(2-cyclopropyl-5,6-difluoro-1H-benzimidazol-1-yl)-N^2-[4-(trifluoromethyl)phenyl]pyridine-2,4-diamine] | 10 to 100 nM | –
Cc1nc2c(F)cc(F)cc2n1-c1cc(C#N)cc(Nc2ccc(OC(F)F)cc2)n1 [Cpd 448, 2-{[4-(difluoromethoxy)phenyl]amino}-6-(4,6-difluoro-2-methyl-1H-benzimidazol-1-yl)pyridine-4-carbonitrile] | 10 to 100 nM | –
COc1ccc(Nc2cncc(-n3c(C)nc4ccccc43)n2)cc1F [compound 12, N-(3-fluoro-4-methoxyphenyl)-6-(2-methyl-1H-benzimidazol-1-yl)pyrazin-2-amine] | < 1 nM | –
CCc1nc2ncncc2n1-c1cncc(Nc2ccc(C(F)(F)F)cc2)n1 [compound 94, 6-(8-ethyl-7H-purin-7-yl)-N-[4-(trifluoromethyl)phenyl]pyrazin-2-amine] | 100 to 3000 nM | –
Cc1cn(-c2cncc(Nc3ccc(C(F)(F)F)cc3)n2)c(C)n1 [compound 300] | 10 to 100 nM | –
Cc1nc2ccc(F)cc2n1-c1cccc(Nc2ccc(Cl)cc2)n1 [Cpd 608, N-(4-chlorophenyl)-6-(6-fluoro-2-methyl-1H-benzimidazol-1-yl)pyridin-2-amine] | 10 to 100 nM | –
Cc1nc2ncccc2n1-c1cccc(Nc2ccc(C(F)(F)F)cc2)n1 [compound 139, 6-(2-methyl-1H-imidazo[4,5-b]pyridin-1-yl)-N-[4-(trifluoromethyl)phenyl]pyridin-2-amine] | 10 to 100 nM | –
CC(O)c1nc2ccccc2n1-c1cncc(Nc2ccc(C(F)(F)F)cc2)n1 (stereo not drawn) [compound 150, 1-[1-(6-{[4-(trifluoromethyl)phenyl]amino}pyrazin-2-yl)-1H-benzimidazol-2-yl]ethanol] | 10 to 100 nM | –
Cc1nc(C)n(-c2cncc(Nc3ccc(C(F)(F)F)cc3)n2)c1Cl [compound 299, 6-(5-chloro-2,4-dimethyl-1H-imidazol-1-yl)-N-[4-(trifluoromethyl)phenyl]pyrazin-2-amine] | 100 to 3000 nM | –
Nc1nc2ccccc2n1-c1cncc(Nc2ccc(C(F)(F)F)cc2)n1 [compound 76, 1-(6-{[4-(trifluoromethyl)phenyl]amino}pyrazin-2-yl)-1H-benzimidazol-2-amine] | 100 to 3000 nM | –
Cc1nc2cc(F)c(F)cc2n1-c1cc(C#N)cc(Nc2ccc(OC(F)F)c(F)c2)n1 [compound 326, 2-{[4-(difluoromethoxy)-3-fluorophenyl]amino}-6-(5,6-difluoro-2-methyl-1H-benzimidazol-1-yl)pyridine-4-carbonitrile] | 10 to 100 nM | –
Cc1nc2ccc(Cl)cc2n1-c1cncc(Nc2ccc(C(F)(F)F)cc2)n1 [compound 240, 6-(6-chloro-2-methyl-1H-benzimidazol-1-yl)-N-[4-(trifluoromethyl)phenyl]pyrazin-2-amine] | 10 to 100 nM | –
Cc1nn2ccccc2c1-c1cncc(Nc2ccc(C(F)(F)F)cc2)n1 [compound 497, 6-(2-methylpyrazolo[1,5-a]pyridin-3-yl)-N-[4-(trifluoromethyl)phenyl]pyrazin-2-amine] | – | 1 to 10 nM
O=[N+]([O-])c1cc(Nc2ccc(C(F)(F)F)cc2)nc(-c2c(C(F)(F)F)nc3ccc(F)cn23)c1 [compound 286, 6-[6-fluoro-2-(trifluoromethyl)imidazo[1,2-a]pyridin-3-yl]-4-nitro-N-[4-(trifluoromethyl)phenyl]pyridin-2-amine] | – | 10 to 100 nM
Cc1nc(C)n(-c2cncc(Nc3ccc(OC(F)F)cc3)n2)c1Cl [compound 305, 6-(5-chloro-2,4-dimethyl-1H-imidazol-1-yl)-N-[4-(difluoromethoxy)phenyl]pyrazin-2-amine] | 100 to 3000 nM | –
CNC(=O)c1ccc(Nc2cncc(-n3c(C)nc4ccccc43)n2)cc1 [compound 186, N-methyl-4-{[6-(2-methyl-1H-benzimidazol-1-yl)pyrazin-2-yl]amino}benzamide] | 100 to 3000 nM | –
Cc1nn(C)c(Cl)c1-c1cncc(Nc2ccc(C(F)(F)F)cc2)n1 [compound 412, 6-(5-chloro-1,3-dimethyl-1H-pyrazol-4-yl)-N-[4-(trifluoromethyl)phenyl]pyrazin-2-amine] | 1 to 10 nM | –
Cc1nc2ccc(O)cn2c1-c1cc(C#N)cc(Nc2ccc(C(F)(F)F)cc2)n1 [compound 381, 2-(6-hydroxy-2-methylimidazo[1,2-a]pyridin-3-yl)-6-{[4-(trifluoromethyl)phenyl]amino}pyridine-4-carbonitrile] | 10 to 100 nM | –
Nc1cc(Nc2ccc(C(F)(F)F)cc2)nc(-c2c(C(F)(F)F)nc3ccccn23)c1 [compound 159, 6-[2-(trifluoromethyl)imidazo[1,2-a]pyridin-3-yl]-N^2-[4-(trifluoromethyl)phenyl]pyridine-2,4-diamine] | 1 to 10 nM | –
Cc1nc2ccccc2n1-c1cncc(Nc2ccc(C(F)(F)F)cc2)n1 [compound 13, 6-(2-methyl-1H-benzimidazol-1-yl)-N-[4-(trifluoromethyl)phenyl]pyrazin-2-amine] | 10 to 100 nM | –
Cc1nc2ccccc2n1-c1cc(N)cc(Nc2ccc(Cl)cc2)n1 [compound 633, N^2-(4-chlorophenyl)-6-(2-methyl-1H-benzimidazol-1-yl)pyridine-2,4-diamine] | 10 to 100 nM | –
Cc1nn2ccccc2c1-c1cncc(Nc2ccc(F)cc2)n1 [compound 568, N-(4-fluorophenyl)-6-(2-methylpyrazolo[1,5-a]pyridin-3-yl)pyrazin-2-amine] | 100 to 3000 nM | –
FC(F)(F)c1nc2ccccn2c1-c1cncc(Nc2cnc(Cl)nc2)n1 [compound 200, 2-chloro-N-{6-[2-(trifluoromethyl)imidazo[1,2-a]pyridin-3-yl]pyrazin-2-yl}pyrimidin-5-amine] | 100 to 3000 nM | –
Cc1nn2ccccc2c1-c1cncc(Nc2ccc(Cl)cc2)n1 [compound 567, N-(4-chlorophenyl)-6-(2-methylpyrazolo[1,5-a]pyridin-3-yl)pyrazin-2-amine] | 10 to 100 nM | –
Cc1nc2cc(F)c(F)cc2n1-c1cccc(Nc2ccc(OC(F)(F)F)cc2)n1 [compound 603, 6-(5,6-difluoro-2-methyl-1H-benzimidazol-1-yl)-N-[4-(trifluoromethoxy)phenyl]pyridin-2-amine] | 100 to 3000 nM | –
COc1ccc(Nc2cc(C)cc(-n3c(C)nc4ccccc43)n2)cc1 [compound 655, N-(4-methoxyphenyl)-4-methyl-6-(2-methyl-1H-benzimidazol-1-yl)pyridin-2-amine] | 100 to 3000 nM | –
Cc1ccc(Nc2cccc(-n3c(C)nc4cc(F)c(F)cc43)n2)cc1 [compound 614, 6-(5,6-difluoro-2-methyl-1H-benzimidazol-1-yl)-N-(4-methylphenyl)pyridin-2-amine] | 10 to 100 nM | –
Cc1nc2ccc(Br)cc2n1-c1cncc(Nc2ccc(C(F)(F)F)cc2)n1 [compound 388, 6-(6-bromo-2-methyl-1H-benzimidazol-1-yl)-N-[4-(trifluoromethyl)phenyl]pyrazin-2-amine] | 10 to 100 nM | –
N#Cc1cc(Nc2ccc(OC(F)F)c(F)c2)nc(-n2c(C3CC3)nc3c(F)cc(F)cc32)c1 [compound 476, 2-(2-cyclopropyl-4,6-difluoro-1H-benzimidazol-1-yl)-6-{[4-(difluoromethoxy)-3-fluorophenyl]amino}pyridine-4-carbonitrile] | 10 to 100 nM | –
